Experimental data from ChEMBL document CHEMBL3044992, “Design, synthesis, and docking studies of novel ofloxacin analogues as antimicrobial agents” (2012).
≈ marks a conversion by molar mass, not a printed value.

Key:
Format in all cases: functional
[1] = test system: Staphylococcus epidermidis; assay: Antibacterial activity against Staphylococcus epidermidis after 24 hr by two-fold serial dilution method
Staphylococcus aureus = assay: Antibacterial activity against Staphylococcus aureus after 24 hr by two-fold serial dilution method
Bacillus subtilis = assay: Antibacterial activity against Bacillus subtilis after 24 hr by two-fold serial dilution method
Candida albicans [2] = assay: Antifungal activity against Candida albicans at 100 ug/ml after 48 hr […]; conditions: read-out: IZ
Candida albicans [3] = assay: Antifungal activity against Candida albicans at 50 ug/ml after 48 hr […]; conditions: read-out: IZ
Candida albicans [4] = assay: Antifungal activity against Candida albicans at 25 ug/ml after 48 hr […]; conditions: read-out: IZ
Pseudomonas aeruginosa = assay: Antibacterial activity against Pseudomonas aeruginosa after 24 hr by two-fold serial dilution method
Klebsiella pneumoniae = assay: Antibacterial activity against Klebsiella pneumoniae after 24 hr by two-fold serial dilution method
Escherichia coli = assay: Antibacterial activity against Escherichia coli after 24 hr by two-fold serial dilution method

Row | Structure (SMILES) | MIC [1] [µg/mL] | MIC (Staphylococcus aureus) [µg/mL] | MIC (Bacillus subtilis) [µg/mL] | zone of inhibition at 100 µg/mL (Candida albicans [2]) [mm] | zone of inhibition at 50 µg/mL (Candida albicans [3]) [mm] | zone of inhibition at 25 µg/mL (Candida albicans [4]) [mm] | MIC (Pseudomonas aeruginosa) [µg/mL] | MIC (Klebsiella pneumoniae) [µg/mL] | MIC (Escherichia coli) [µg/mL]
1 | CC1COc2c(N3CCN(C)CC3)c(F)cc3c(=O)c(C(=O)N/N=C/c4ccccc4O)cn1c23 (stereo not given) | 0.25 (≈ 0.521 µM) | 0.25 (≈ 0.521 µM) | 0.5 (≈ 1.04 µM) | 21 | 18 | 15 | 0.12 (≈ 0.25 µM) | 1 (≈ 2.09 µM) | 1 (≈ 2.09 µM)
2 | COc1ccc(/C=N/NC(=O)c2cn3c4c(c(N5CCN(C)CC5)c(F)cc4c2=O)OCC3C)cc1 (stereo not given) | 0.25 (≈ 0.507 µM) | 0.125 (≈ 0.253 µM) | 0.5 (≈ 1.01 µM) | 23 | 20 | 18 | 0.5 (≈ 1.01 µM) | 0.5 (≈ 1.01 µM) | 0.5 (≈ 1.01 µM)
3 | CC1COc2c(N3CCN(C)CC3)c(F)cc3c(=O)c(-c4nn(CCC(=O)c5ccc(N)cc5)c(=S)o4)cn1c23 (stereo not given) | 0.5 (≈ 0.886 µM) | 0.25 (≈ 0.443 µM) | 0.5 (≈ 0.886 µM) | 21 | 18 | 17 | 0.5 (≈ 0.886 µM) | 0.5 (≈ 0.886 µM) | 0.25 (≈ 0.443 µM)
4 | CC(=O)CCn1nc(-c2cn3c4c(c(N5CCN(C)CC5)c(F)cc4c2=O)OCC3C)n(N)c1=S (stereo not given) | 0.5 (≈ 0.997 µM) | 3.12 (≈ 6.23 µM) | 0.5 (≈ 0.997 µM) | 22 | 18 | 16 | 0.5 (≈ 0.997 µM) | 0.12 (≈ 0.239 µM) | 0.5 (≈ 0.997 µM)
5 | CC1COc2c(N3CCN(C)CC3)c(F)cc3c(=O)c(-c4nn(CCC(=O)c5ccccc5O)c(=S)n4N)cn1c23 (stereo not given) | 0.5 (≈ 0.863 µM) | 0.25 (≈ 0.431 µM) | 0.5 (≈ 0.863 µM) | 21 | 17 | 15 | 0.5 (≈ 0.863 µM) | 0.12 (≈ 0.207 µM) | 1 (≈ 1.73 µM)
6 | CC1COc2c(N3CCN(C)CC3)c(F)cc3c(=O)c(C(=O)O)cn1c23 (stereo not given) [OFLOXACIN] | 0.5 (≈ 1.38 µM) | 0.25 (≈ 0.692 µM) | 1 (≈ 2.77 µM) | 28 | 26 | 21 |  | 0.06 (≈ 0.166 µM) | 
7 | CC1COc2c(N3CCN(C)CC3)c(F)cc3c(=O)c(-c4nn(CCC(=O)c5ccccc5)c(=S)o4)cn1c23 (stereo not given) | 0.5 (≈ 0.91 µM) | 0.25 (≈ 0.455 µM) | 0.5 (≈ 0.91 µM) | 22 | 19 | 16 | 2 (≈ 3.64 µM) | 0.25 (≈ 0.455 µM) | 1 (≈ 1.82 µM)
8 | CC1COc2c(N3CCN(C)CC3)c(F)cc3c(=O)c(C(=O)NNC=O)cn1c23 (stereo not given) | 0.25 (≈ 0.62 µM) | 0.25 (≈ 0.62 µM) | 0.5 (≈ 1.24 µM) | 23 | 21 | 18 | 1 (≈ 2.48 µM) | 1 (≈ 2.48 µM) | 1 (≈ 2.48 µM)
9 | CC(=O)CCn1nc(-c2cn3c4c(c(N5CCN(C)CC5)c(F)cc4c2=O)OCC3C)oc1=S (stereo not given) | 0.25 (≈ 0.513 µM) | 0.25 (≈ 0.513 µM) | 0.5 (≈ 1.03 µM) | 22 | 18 | 15 | 0.25 (≈ 0.513 µM) | 0.12 (≈ 0.246 µM) | 0.25 (≈ 0.513 µM)
10 | CC1COc2c(N3CCN(C)CC3)c(F)cc3c(=O)c(-c4nn(CCC(=O)Cc5cccc([N+](=O)[O-])c5)c(=S)n4N)cn1c23 (stereo not given) | 0.5 (≈ 0.803 µM) | 0.25 (≈ 0.401 µM) | 0.5 (≈ 0.803 µM) | 21 | 18 | 16 | 0.25 (≈ 0.401 µM) | 0.12 (≈ 0.193 µM) | 1 (≈ 1.61 µM)
11 | CC1COc2c(N3CCN(C)CC3)c(F)cc3c(=O)c(C(=O)N/N=C/c4cccc([N+](=O)[O-])c4)cn1c23 (stereo not given) | 0.25 (≈ 0.492 µM) | 0.25 (≈ 0.492 µM) | 0.5 (≈ 0.983 µM) | 20 | 17 | 15 | 0.5 (≈ 0.983 µM) | 0.5 (≈ 0.983 µM) | 0.5 (≈ 0.983 µM)
12 | CC1COc2c(N3CCN(C)CC3)c(F)cc3c(=O)c(C(=O)N/N=C/c4ccccc4)cn1c23 (stereo not given) | 0.25 (≈ 0.539 µM) | 0.125 (≈ 0.27 µM) | 0.5 (≈ 1.08 µM) | 21 | 18 | 15 | 1 (≈ 2.16 µM) | 0.25 (≈ 0.539 µM) | 1 (≈ 2.16 µM)
13 | CC1COc2c(N3CCN(C)CC3)c(F)cc3c(=O)c(C(=O)N/N=C/c4ccccc4Cl)cn1c23 (stereo not given) | 0.5 (≈ 1 µM) | 0.125 (≈ 0.251 µM) | 0.5 (≈ 1 µM) | 22 | 18 | 16 | 0.25 (≈ 0.502 µM) | 0.12 (≈ 0.241 µM) | 0.5 (≈ 1 µM)
